Measured values from publication PMC6017115, “Inhibitory Effect of Sauchinone on UDP-Glucuronosyltransferase (UGT) 2B7 Activity” (Molecules : A Journal of Synthetic Chemistry and Natural …, 2018).
Marks after values point to notes of the source that are not given here.

What was measured:
UGT1A4 = molecular target: T1, UGT1A4 (Homo sapiens, UniProt P22310); test: Inhibition of UGT1A4 (trifluoperazine glucuronidation) in human liver microsomes; format: in vitro ADME
T1 construct: The reaction mixture containing 0.25 mg/mL protein of HLM; tissue Corning Life Sciences 452156; host or cells: pooled human liver microsomes, 50 donors
T1 sequence (P22310 29-534): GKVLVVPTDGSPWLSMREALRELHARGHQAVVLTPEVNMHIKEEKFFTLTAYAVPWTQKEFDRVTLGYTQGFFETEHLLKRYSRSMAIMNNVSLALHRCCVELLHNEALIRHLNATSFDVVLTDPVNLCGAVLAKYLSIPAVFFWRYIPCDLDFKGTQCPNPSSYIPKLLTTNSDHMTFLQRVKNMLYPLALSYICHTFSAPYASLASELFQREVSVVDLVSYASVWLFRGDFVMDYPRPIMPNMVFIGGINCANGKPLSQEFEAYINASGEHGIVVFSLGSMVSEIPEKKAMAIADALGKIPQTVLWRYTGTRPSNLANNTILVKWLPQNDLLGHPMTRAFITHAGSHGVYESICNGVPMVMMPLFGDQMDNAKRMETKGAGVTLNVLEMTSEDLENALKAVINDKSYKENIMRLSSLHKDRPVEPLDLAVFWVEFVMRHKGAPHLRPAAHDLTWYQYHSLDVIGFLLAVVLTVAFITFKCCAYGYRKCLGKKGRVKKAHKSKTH
Protocol: (§1) Their IC50 values were compared to that of sauchinone. […] UGT-mediated activities in the presence of sauchinone as an inhibitor were expressed as percentages of corresponding control values (in absence of sauchinone). From percentages of control activity versus inhibitor concentrations, a sigmoid shaped curve was fitted to the data and IC50 as an enzyme inhibition parameter was calculated by fitting the Hill equation to the data using GraphPad Prism 5 (GraphPad Software Inc., San Diego, CA, USA).

UGT2B7 = molecular target: T2, UGT2B7 (Homo sapiens, UniProt P16662); test: Enzyme kinetic assay (Ki, Dixon plot) of UGT2B7-mediated zidovudine glucuronidation; conditions: human, pH 7.6
T2 sequence (P16662 24-529): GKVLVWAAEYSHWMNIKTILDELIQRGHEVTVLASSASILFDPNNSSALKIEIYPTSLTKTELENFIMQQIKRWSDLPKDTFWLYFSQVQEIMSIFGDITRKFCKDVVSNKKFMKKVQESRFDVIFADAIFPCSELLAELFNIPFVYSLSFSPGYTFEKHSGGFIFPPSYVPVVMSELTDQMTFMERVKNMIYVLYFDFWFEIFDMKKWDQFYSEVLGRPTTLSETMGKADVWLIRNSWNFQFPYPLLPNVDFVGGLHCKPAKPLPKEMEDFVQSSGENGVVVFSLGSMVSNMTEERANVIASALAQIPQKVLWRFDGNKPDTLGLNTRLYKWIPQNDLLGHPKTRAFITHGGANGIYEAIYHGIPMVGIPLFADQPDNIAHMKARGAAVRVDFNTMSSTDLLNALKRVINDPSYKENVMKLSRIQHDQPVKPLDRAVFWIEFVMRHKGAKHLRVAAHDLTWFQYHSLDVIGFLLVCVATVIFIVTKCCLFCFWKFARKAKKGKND
Protocol: Inhibitory effects of sauchinone on UGT1A1, 1A3, 1A4, 1A6, 1A9, and 2B7 activities were evaluated using HLMs. […] Spiked volume of UGT cocktail set was 1% (v/v) of total volume of mixture. […] The reaction was initiated by adding 5 mM UDPGA to a final volume of 150 μL and incubated at 37 °C for 15 or 60 min in a thermomixer at 500 rpm. Each reaction was stopped by adding 150 μL of ice-cold methanol containing 50 ng/mL IS. These mixtures were then centrifuged (12,000 rpm for 10 min at 4 °C) and 5 μL of the supernatant was injected into a UPLC-MS/MS system. […] Their IC50 values were compared to that of sauchinone. All inhibitors were dissolved in methanol (except for hecogenin, which was dissolved in dimethyl sulfoxide) and serially diluted to the required concentrations using the same solutions. The final concentration of organic solvent of inhibitors was 1% (v/v). All studies were performed in triplicate and mean values were used in the analysis. The half maximal inhibition constant (IC50) of sauchinone on UGT isoforms was estimated using GraphPad program.
Based on IC50 values, Ki values of sauchinone for UGT1A6 and 2B7 were determined. Concentrations of 0–200 μM of sauchinone were used. Other procedures were similar to those mentioned above in the study of reversible inhibitory effects of sauchinone. Inhibitory characteristics of sauchinone were initially estimated by nonlinear least squares regression analysis and Ki values were determined by Dixon plots.

[1] = Pharmacokinetic study of zidovudine with or without sauchinone in mice; conditions: for CLNR / AUC(0-t) / AUC / clearance / CL renal / MRT / Vd / half-life / Ae0–24 h / GI24 h: mean ± SD, n = 11; for AUC(0-t) / AUC / clearance / CL renal / MRT / Vd / half-life: mouse, plasma, iv, 15 mg/kg; for AUC(0-t): AUC480 min; for AUC: time zero to infinity; for clearance: CL; for CL renal: CLR; for Vd: Vss; for half-life: t1/2, mice; for Ae0–24 h: zidovudine excreted into urine for 24 h; for GI24 h: zidovudine remaining or excreted in GI at 24 h
UGT1A1 = molecular target: T3, UGT1A1 (Homo sapiens, UniProt P22309); test: Inhibition of UGT1A1 (β-estradiol glucuronidation) in human liver microsomes; format: in vitro ADME; conditions: substrate 10 μM β-estradiol, mean (minimum–maximum)
T3 construct: The reaction mixture containing 0.25 mg/mL protein of HLM; tissue Corning Life Sciences 452156; host or cells: pooled human liver microsomes, 50 donors
T3 sequence (P22309 26-533): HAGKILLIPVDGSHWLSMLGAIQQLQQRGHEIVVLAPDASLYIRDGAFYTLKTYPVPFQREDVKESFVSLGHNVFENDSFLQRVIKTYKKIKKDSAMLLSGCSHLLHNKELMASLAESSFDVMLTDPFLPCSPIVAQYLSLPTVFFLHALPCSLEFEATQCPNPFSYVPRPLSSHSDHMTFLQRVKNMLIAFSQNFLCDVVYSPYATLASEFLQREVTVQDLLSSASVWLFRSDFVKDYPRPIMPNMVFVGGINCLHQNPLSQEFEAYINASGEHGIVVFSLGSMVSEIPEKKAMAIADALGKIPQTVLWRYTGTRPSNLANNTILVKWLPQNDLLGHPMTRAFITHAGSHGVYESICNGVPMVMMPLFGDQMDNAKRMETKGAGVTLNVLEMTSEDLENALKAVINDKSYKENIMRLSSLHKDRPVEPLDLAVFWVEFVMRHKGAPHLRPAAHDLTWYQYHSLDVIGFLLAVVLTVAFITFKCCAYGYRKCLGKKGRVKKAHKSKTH
Protocol: as §1

UGT1A6 = molecular target: T4, UGT1A6 (Homo sapiens, UniProt P19224); test: Inhibition of UGT1A6 (serotonin glucuronidation) in human liver microsomes; format: in vitro ADME
T4 construct: tissue Corning Life Sciences 452156; host or cells: pooled human liver microsomes
T4 sequence (P19224 27-532): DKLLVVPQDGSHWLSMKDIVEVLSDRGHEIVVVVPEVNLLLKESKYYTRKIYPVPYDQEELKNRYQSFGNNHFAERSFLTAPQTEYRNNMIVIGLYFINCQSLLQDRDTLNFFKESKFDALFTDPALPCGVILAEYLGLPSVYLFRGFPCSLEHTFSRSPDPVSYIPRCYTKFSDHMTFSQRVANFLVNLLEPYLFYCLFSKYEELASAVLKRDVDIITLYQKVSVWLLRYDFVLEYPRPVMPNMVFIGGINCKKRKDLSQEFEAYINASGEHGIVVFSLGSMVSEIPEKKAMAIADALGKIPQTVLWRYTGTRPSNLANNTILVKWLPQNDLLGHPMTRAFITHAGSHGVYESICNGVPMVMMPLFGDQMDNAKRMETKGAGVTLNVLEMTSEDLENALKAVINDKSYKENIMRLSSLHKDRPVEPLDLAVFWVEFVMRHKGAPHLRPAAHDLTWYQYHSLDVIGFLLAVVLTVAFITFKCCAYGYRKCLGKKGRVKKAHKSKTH
Protocol: as §1

UGT1A9 = molecular target: T5, UGT1A9 (Homo sapiens, UniProt O60656); test: Inhibition of UGT1A9 (propofol glucuronidation) in human liver microsomes; format: in vitro ADME; conditions: substrate 100 μM propofol, mean (minimum–maximum)
T5 construct: The reaction mixture containing 0.25 mg/mL protein of HLM; tissue Corning Life Sciences 452156; host or cells: pooled human liver microsomes, 50 donors
T5 sequence (O60656 26-530): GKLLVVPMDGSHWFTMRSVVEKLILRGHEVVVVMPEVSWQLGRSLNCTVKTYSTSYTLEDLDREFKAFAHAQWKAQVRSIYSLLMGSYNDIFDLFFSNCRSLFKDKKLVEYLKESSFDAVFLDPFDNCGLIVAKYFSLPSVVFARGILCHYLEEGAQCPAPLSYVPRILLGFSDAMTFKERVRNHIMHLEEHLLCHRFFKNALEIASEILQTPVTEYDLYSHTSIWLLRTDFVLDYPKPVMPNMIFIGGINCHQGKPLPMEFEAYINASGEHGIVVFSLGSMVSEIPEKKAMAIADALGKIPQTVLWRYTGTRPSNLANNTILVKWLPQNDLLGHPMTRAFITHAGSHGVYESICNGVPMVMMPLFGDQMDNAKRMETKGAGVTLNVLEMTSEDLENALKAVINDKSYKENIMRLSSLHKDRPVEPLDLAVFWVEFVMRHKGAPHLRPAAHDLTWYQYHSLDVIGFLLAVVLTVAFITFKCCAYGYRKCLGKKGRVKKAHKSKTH
Protocol: as §1

[2] = substrate: NCCc1c[nH]c2ccc(O)cc12; test: purified protein, by the assay type; conditions: other: without sauchinone; pH 7.6; 37.0 °C
[3] = mice, zidovudine 15 mg/kg iv with oral 100 mg/kg sauchinone
[4] = mice, zidovudine 15 mg/kg iv with vehicle
[5] = mice, zidovudine 15 mg/kg iv, oral 100 mg/kg sauchinone

With `C[C@@H]1CC[C@@]2(OC1)O[C@H]1C[C@H]3[C@@H]4CC[C@H]5C[C@@H](O)CC[C@]5(C)[C@H]4CC(=O)[C@]3(C)[C@H]1[C@@H]2C` [Hecogenin] the IC50 (UGT1A4) was 3.99 µM.

In the case of `Cc1cn([C@H]2C[C@H](N=[N+]=[N-])[C@@H](CO)O2)c(=O)[nH]c1=O` [zidovudine], the Km (UGT2B7) is reported as 85 µM, the CLNR [1, 3] is reported as 24.5 ± 9.31 ^a mL/min/kg and the CLNR [1, 4] is reported as 34.8 ± 10.5 mL/min/kg. For the same molecule, the “decrease of CL of zidovudine with sauchinone compared to without” value [1, 5] was 29.3%, the “decrease of CLNR of zidovudine with sauchinone compared to without” value [1, 5] was 29.6% and the “increase of AUC480 min of zidovudine with sauchinone compared to without” value [1, 5] was 53.1%. For the same molecule, the AUC(0-t) [1, 3] was 5730 ng·h/mL, the AUC(0-t) [1, 4] was 3780 ng·h/mL and the AUC [1, 3] was 5820 ng·h/mL. It also gave an AUC [1, 4] of 3800 ng·h/mL, a clearance [1, 3] of 48.6 ± 16.1 mL/min/kg and a clearance [1, 4] of 68.7 ± 18.7 mL/min/kg. It also gave a CL renal [1, 3] of 24 ± 8.02 mL/min/kg, a CL renal [1, 4] of 34 ± 11.2 mL/min/kg and an MRT [1, 3] of 0.725 h. For the same molecule, the MRT [1, 4] was 0.93 h, the Vd [1, 3] was 2.1 ± 1.23 L/kg and the Vd [1, 4] was 3.31 ± 1.67 L/kg. For the same molecule, the half-life ([1]; zidovudine 15 mg/kg iv with oral 100 mg/kg sauchinone) was 2.97 ± 1.55 h, the half-life ([1]; zidovudine 15 mg/kg iv with vehicle) was 3.45 ± 2.22 h and the “Ae0–24 h” value [1, 3] was 50.2 ± 8.41 % of dose. For the same molecule, the “Ae0–24 h” value [1, 4] was 50.3 ± 8.01 % of dose, the GI24 h [1, 3] was 0.321 ± 0.646 % of dose and the GI24 h [1, 4] was 0.672 ± 0.999 % of dose.

`O=c1cc(-c2ccccc2)oc2cc(O)cc(O)c12` [Chrysin] gave an IC50 (UGT1A1) of 28.3 µM.

Molecule `Oc1cccc2ccccc12` [1-Naphthol] has an IC50 (UGT1A6) of 35.2 µM.

Molecule `O=C(O)c1cccnc1Nc1cccc(C(F)(F)F)c1` [Niflumic acid] has an IC50 (UGT1A9) of 0.755 µM.

B1: UGT1A6 (Homo sapiens) (protein)
chain: DKLLVVPQDGSHWLSMKDIVEVLSDRGHEIVVVVPEVNLLLKESKYYTRKIYPVPYDQEELKNRYQSFGNNHFAERSFLTAPQTEYRNNMIVIGLYFINCQSLLQDRDTLNFFKESKFDALFTDPALPCGVILAEYLGLPSVYLFRGFPCSLEHTFSRSPDPVSYIPRCYTKFSDHMTFSQRVANFLVNLLEPYLFYCLFSKYEELASAVLKRDVDIITLYQKVSVWLLRYDFVLEYPRPVMPNMVFIGGINCKKRKDLSQEFEAYINASGEHGIVVFSLGSMVSEIPEKKAMAIADALGKIPQTVLWRYTGTRPSNLANNTILVKWLPQNDLLGHPMTRAFITHAGSHGVYESICNGVPMVMMPLFGDQMDNAKRMETKGAGVTLNVLEMTSEDLENALKAVINDKSYKENIMRLSSLHKDRPVEPLDLAVFWVEFVMRHKGAPHLRPAAHDLTWYQYHSLDVIGFLLAVVLTVAFITFKCCAYGYRKCLGKKGRVKKAHKSKTH
With B1 the Km [2] was 126 µM and the Vmax [2] was 174 μM/min/mg protein.
